Where “and” joins values, the source holds several entries; their conditions need not be identical. Identical values can stand only once. Inconclusive results and toxic doses are left out.

The test deals with P388 leukemia ip, CD2F1 mice, survival T/C. Nature of the test: NCI In Vivo Anticancer Drug Screen. Data for tumor model P388 Leukemia (intraperitoneal) in CD2F1 (CDF1) mice. Particulars: endpoint: median survival time, higher = longer survival. In short, it runs like this: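 Mice carrying the transplanted tumor received test compound or vehicle. Survival was recorded in each group, and the value is the treated-group measurement divided by that of the vehicle-treated control group.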

Where [1] appears, read: dose: 50.0 mg/kg/injection, schedule: Q01DX005 (ip), vehicle: Klucel (hydroxypropylcellulose) (HPC).
The mark [2] stands for this setting: dose: 100.0 mg/kg/injection, schedule: Q01DX005 (ip), vehicle: Klucel (hydroxypropylcellulose) (HPC).
The mark [3] stands for this setting: dose: 200.0 mg/kg/injection, schedule: Q01DX005 (ip), vehicle: Klucel (hydroxypropylcellulose) (HPC).
[4] abbreviates: dose: 50.0 mg/kg/injection, schedule: Q01DX005 (ip), vehicle: saline with Tween-80.
Setting [5] is: dose: 100.0 mg/kg/injection, schedule: Q01DX005 (ip), vehicle: saline with Tween-80.
[6] abbreviates: dose: 200.0 mg/kg/injection, schedule: Q01DX005 (ip), vehicle: saline with Tween-80.
Where [7] appears, read: dose: 60.0 mg/kg/injection, schedule: Q01DX005 (ip), vehicle: saline with Tween-80.
Where [8] appears, read: dose: 120.0 mg/kg/injection, schedule: Q01DX005 (ip), vehicle: saline with Tween-80.
Setting [9] is: dose: 240.0 mg/kg/injection, schedule: Q01DX005 (ip), vehicle: saline with Tween-80.
Setting [10] is: dose: 12.5 mg/kg/injection, schedule: Q01DX009 (ip), vehicle: saline with Tween-80.
Setting [11] is: dose: 25.0 mg/kg/injection, schedule: Q01DX009 (ip), vehicle: saline with Tween-80.
[12] abbreviates: dose: 50.0 mg/kg/injection, schedule: Q01DX009 (ip), vehicle: saline with Tween-80.
Where [13] appears, read: dose: 100.0 mg/kg/injection, schedule: Q01DX009 (ip), vehicle: saline with Tween-80.
[14] abbreviates: dose: 6.25 mg/kg/injection, schedule: Q01DX009 (ip), vehicle: saline with Tween-80.

For `CC(C)SC(=O)C=C(c1ccccc1)c1ccccc1`, the T/C is 95 % of control (dose: 100.0 mg/kg/injection, schedule: Q01DX001 (ip), vehicle: Klucel (hydroxypropylcellulose) (HPC)); 96 % of control (dose: 200.0 mg/kg/injection, schedule: Q01DX001 (ip), vehicle: Klucel (hydroxypropylcellulose) (HPC)); 100 % of control (dose: 400.0 mg/kg/injection, schedule: Q01DX001 (ip), vehicle: Klucel (hydroxypropylcellulose) (HPC)).

On to `CC(=O)NC(CCCCN)C(=O)O` (configuration not stated), for which the T/C under setting [1] is 103 % of control, the T/C under setting [2] is 101 % of control and the T/C under setting [3] is 102 % of control.

For `O=C1Cn2c(c3ccccc3nc2=O)N1`, the T/C reads like this: under setting [4], 104 % of control; under setting [5], 103 % of control; under setting [6], 106 % of control.

Turning to `Cc1cc(C)n(C(N)=NC(=O)c2ccc([N+](=O)[O-])cc2)n1`, the T/C runs as follows: (dose: 50.0 mg/kg/injection, schedule: Q01DX009 (ip), vehicle: Klucel (hydroxypropylcellulose) (HPC)) 99 % of control; (dose: 100.0 mg/kg/injection, schedule: Q01DX009 (ip), vehicle: Klucel (hydroxypropylcellulose) (HPC)) 101 % of control; (dose: 200.0 mg/kg/injection, schedule: Q01DX009 (ip), vehicle: Klucel (hydroxypropylcellulose) (HPC)) 106 % of control.

Turning to `CSC(=Cc1ccc2cc(Br)ccc2[n+]1C)SC`, the T/C is, setting by setting: (dose: 3.12 mg/kg/injection, schedule: Q01DX009 (ip), vehicle: Klucel (hydroxypropylcellulose) (HPC)) 110 % of control; (dose: 6.25 mg/kg/injection, schedule: Q01DX009 (ip), vehicle: Klucel (hydroxypropylcellulose) (HPC)) 117 % of control and 121 % of control; (dose: 25.0 mg/kg/injection, schedule: Q01DX009 (ip), vehicle: Klucel (hydroxypropylcellulose) (HPC)) 107 % of control.

Take `CC1CCC(C)N1P(=O)(N1CC1)N1CC1` (configuration not stated): the T/C reads like this: (dose: 6.25 mg/kg/injection, schedule: Q04DX003 (ip), vehicle: saline) 108 % of control; (dose: 12.5 mg/kg/injection, schedule: Q01DX009 (ip), vehicle: saline) 110 % of control; (dose: 25.0 mg/kg/injection, schedule: Q01DX009 (ip), vehicle: saline) 90 % of control; (dose: 25.0 mg/kg/injection, schedule: Q04DX003 (ip), vehicle: saline) 160 % of control and 200 % of control; (dose: 50.0 mg/kg/injection, schedule: Q04DX003 (ip), vehicle: saline) 155 % of control.

`Cc1nc(Br)c(Br)n1Cc1ccccc1`: the T/C is 99 % of control under setting [7], 99 % of control under setting [8] and 105 % of control under setting [9].

On to `Cc1ccc(/C=N/NC(N)=S)s1`, for which the T/C was 100 % of control under setting [10], 108 % of control under setting [11], 107 % of control under setting [12] and 106 % of control under setting [13].

For `CC(=O)c1c(-c2ccc(Cl)cc2)c(-c2ccc(Cl)cc2)nn(C(C)CO)c1=O` (configuration not stated), the T/C by setting is: under setting [4], 103 % of control; under setting [5], 100 % of control; under setting [6], 97 % of control.

As for `CS(=O)Cc1cc(-c2ccccc2)no1` (configuration not stated), the T/C is 99 % of control under setting [7], 104 % of control under setting [8] and 97 % of control under setting [9].

On to `O=C1C(=O)c2ccccc2C(O)=C1CCCc1ccc(C2CCCCC2)cc1`, for which the T/C reads like this: (dose: 3.12 mg/kg/injection, schedule: Q01DX009 (ip), vehicle: saline with Tween-80) 112 % of control; under setting [14], 101 % of control; under setting [10], 94 % of control; under setting [11], 101 % of control; under setting [12], 94 % of control; under setting [13], 93 % of control. In addition, the T/C (dose: 200.0 mg/kg/injection, schedule: Q01DX009 (ip), vehicle: saline with Tween-80) is 104 % of control.

Consider `c1ccc(N2CCCN2c2ccccc2)cc1`, for which the T/C is 101 % of control (dose: 100.0 mg/kg/injection, schedule: Q04DX002 (ip), vehicle: saline with Tween-80); 99 % of control (dose: 200.0 mg/kg/injection, schedule: Q04DX002 (ip), vehicle: saline with Tween-80); 98 % of control (dose: 400.0 mg/kg/injection, schedule: Q04DX002 (ip), vehicle: saline with Tween-80).

For `CCOC1=C(N2CC2)C(=O)C(OCC)=C(N2CC2)C1=O`, the T/C (dose: 1.25 mg/kg/injection, schedule: Q01DX009 (ip), vehicle: saline) was 171 % of control and the T/C (dose: 2.5 mg/kg/injection, schedule: Q01DX009 (ip), vehicle: saline) was 242 % of control.

As to `O=C(O)c1c[nH]c2cc(OCCOc3ccccc3)ccc2c1=O`, the T/C reads like this: (dose: 50.0 mg/kg/injection, schedule: Q01DX009 (ip), vehicle: saline) 107 % of control; (dose: 100.0 mg/kg/injection, schedule: Q01DX009 (ip), vehicle: saline) 107 % of control; (dose: 200.0 mg/kg/injection, schedule: Q01DX009 (ip), vehicle: saline) 100 % of control.

`CC1(C)[C@H](C(=O)O)N2C(=O)[C@@H](NC(=O)C(c3ccccc3)c3ccccc3)[C@H]2S1=O` (some centres not stated): the T/C (dose: 25.0 mg/kg/injection, schedule: Q01DX005 (ip), vehicle: Klucel (hydroxypropylcellulose) (HPC)) is 101 % of control; the T/C under setting [1] was 99 % of control; the T/C under setting [2] was 101 % of control.

For the compound `COc1cc2c[n+](C)c3c4cc(OC)c(OC)cc4c(O)cc3c2cc1OC`, the T/C was 99 % of control under setting [1], 97 % of control under setting [2] and 99 % of control under setting [3].

Turning to `O=C1OC(=O)c2c(Br)c(Br)c(Br)c(Br)c21`, the T/C (dose: 100.0 mg/kg/injection, schedule: Q04DX003 (ip), vehicle: saline) is 100 % of control; the T/C (dose: 200.0 mg/kg/injection, schedule: Q04DX003 (ip), vehicle: saline) is 100 % of control; the T/C (dose: 400.0 mg/kg/injection, schedule: Q04DX003 (ip), vehicle: saline) is 104 % of control.

As to `Cc1cc(C)c(N)c(Br)c1`, the T/C runs as follows: under setting [14], 118 % of control; under setting [10], 113 % of control; (dose: 12.5 mg/kg/injection, schedule: Q04DX003 (ip), vehicle: saline with Tween-80) 100 % of control; under setting [11], 100 % of control; (dose: 25.0 mg/kg/injection, schedule: Q04DX003 (ip), vehicle: other) 120 % of control; (dose: 25.0 mg/kg/injection, schedule: Q04DX003 (ip), vehicle: saline with Tween-80) 100 % of control. The T/C (dose: 50.0 mg/kg/injection, schedule: Q04DX003 (ip), vehicle: other) is 120 % of control and the T/C (dose: 50.0 mg/kg/injection, schedule: Q04DX003 (ip), vehicle: saline with Tween-80) was 95 % of control.

Turning to `CN1CCN=C1c1ccc(NC(=O)c2ccc(C(=O)Nc3ccc(C4=NCCN4C)cc3)c(Cl)c2)cc1`, the T/C runs as follows: (dose: 1.56 mg/kg/injection, schedule: Q01DX005 (ip), vehicle: Klucel (hydroxypropylcellulose) (HPC)) 104 % of control; (dose: 3.12 mg/kg/injection, schedule: Q01DX005 (ip), vehicle: Klucel (hydroxypropylcellulose) (HPC)) 109 % of control; (dose: 6.25 mg/kg/injection, schedule: Q01DX005 (ip), vehicle: Klucel (hydroxypropylcellulose) (HPC)) 118 % of control and 123 % of control.

As for `COC(=O)C1=C(N2CCCC2)C2c3ccccc3SC12C(=O)OC` (configuration not stated), the T/C runs as follows: (dose: 60.0 mg/kg/injection, schedule: Q01DX005 (ip), vehicle: Klucel (hydroxypropylcellulose) (HPC)) 104 % of control; (dose: 120.0 mg/kg/injection, schedule: Q01DX005 (ip), vehicle: Klucel (hydroxypropylcellulose) (HPC)) 98 % of control; (dose: 240.0 mg/kg/injection, schedule: Q01DX005 (ip), vehicle: Klucel (hydroxypropylcellulose) (HPC)) 94 % of control.

Take `O=C(Nc1cccc2ccccc12)N1c2ccccc2SC12CCCC2`: the T/C is 104 % of control (dose: 1.56 mg/kg/injection, schedule: Q01DX009 (ip), vehicle: saline with Tween-80); 100 % of control (dose: 3.13 mg/kg/injection, schedule: Q01DX009 (ip), vehicle: saline with Tween-80); 99 % of control and 94 % of control under setting [14].

For the compound `CCNC1CC(C)(O)Cc2cc3c(c(O)c21)C(=O)c1c(O)cc2c(c1C3=O)OC1OC2(C)C(O)C(N(C)C)C1O` (configuration not stated), the T/C is 123 % of control (dose: 6.25 mg/kg/injection, schedule: Q01DX009 (ip), vehicle: other); 154 % of control (dose: 25.0 mg/kg/injection, schedule: Q01DX009 (ip), vehicle: other); 120 % of control (dose: 50.0 mg/kg/injection, schedule: Q01DX009 (ip), vehicle: other).
